According to patent publication US20200131129A1, “FARNESOID X RECEPTOR AGONISTS AND USES THEREOF” (Metacrine, Inc., priority 2017, published 2020):
Each block holds one compound with its values, some of them ahead of it.

Biological target: T1, hFXR (Homo sapiens, UniProt Q96RI1)
T1 construct: expressed in transfected cells; host or cells: CV-1 cells
T1 sequence (Q96RI1 1-486): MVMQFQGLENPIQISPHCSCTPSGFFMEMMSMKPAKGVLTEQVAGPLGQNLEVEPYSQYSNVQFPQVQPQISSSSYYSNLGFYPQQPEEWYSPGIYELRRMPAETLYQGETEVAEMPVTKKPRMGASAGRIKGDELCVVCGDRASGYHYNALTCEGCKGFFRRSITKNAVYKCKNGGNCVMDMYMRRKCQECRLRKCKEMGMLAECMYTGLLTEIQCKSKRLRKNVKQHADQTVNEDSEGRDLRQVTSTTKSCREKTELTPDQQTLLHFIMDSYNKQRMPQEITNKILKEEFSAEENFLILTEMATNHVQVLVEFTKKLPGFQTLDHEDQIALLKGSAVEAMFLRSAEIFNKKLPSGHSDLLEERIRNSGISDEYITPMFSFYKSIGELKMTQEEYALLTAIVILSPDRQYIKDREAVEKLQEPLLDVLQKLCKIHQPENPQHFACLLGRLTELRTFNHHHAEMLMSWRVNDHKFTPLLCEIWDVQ
T1 sequence (P19793 1-462 partner): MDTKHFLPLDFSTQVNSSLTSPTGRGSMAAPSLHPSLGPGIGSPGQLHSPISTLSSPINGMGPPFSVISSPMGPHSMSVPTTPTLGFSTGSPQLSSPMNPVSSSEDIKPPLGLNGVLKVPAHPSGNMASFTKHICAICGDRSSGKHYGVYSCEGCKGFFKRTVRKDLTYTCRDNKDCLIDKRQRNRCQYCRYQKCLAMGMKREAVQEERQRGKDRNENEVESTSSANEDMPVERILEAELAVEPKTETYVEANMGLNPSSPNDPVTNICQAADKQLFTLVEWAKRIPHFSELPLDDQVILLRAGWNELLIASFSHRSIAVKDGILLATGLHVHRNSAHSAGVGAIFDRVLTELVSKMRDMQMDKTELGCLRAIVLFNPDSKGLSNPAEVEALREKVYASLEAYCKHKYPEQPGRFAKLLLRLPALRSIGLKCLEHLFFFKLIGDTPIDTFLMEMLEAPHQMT
Assay: In Vitro FXR Assay (TK): hFXR/hRXR TK-ECRE-luc reporter in transfected CV-1 cells
Format: cell-based
Details: CV-1 cells transfected with hFXR, hRXR, 18 hrs incubation, luminescence, maximum efficacy <25% of Fexarmine control also classified as ‘+’
Description: Example B-1: In Vitro FXR Assay (TK)
CV-1 cells were seeded at a density of 2,000,000 cells in a T175 flask with DMEM+10% charcoal double-stripped FBS and incubated at 37° C. in 5% CO2 for 18 h (O/N).
After 18 h of incubation, the medium in the T175 flask was changed with fresh DMEM+10% charcoal super-stripped serum. In a polypropylene tube, 2500 μL OptiMEM (Life Technologies, Cat #31985-062) was combined with expression plasmids for hFXR, hRXR, TK-ECRE-luc and pCMX-YFP. The tube was then briefly vortexed and incubated at room temperature for 5 minutes. Transfection reagent (X-tremeGENE HP from Roche, Cat #06 366 236 001) was added to the OptiMEM/plasmid mixture vortexed and incubated at room temperature for 20 minutes. Following incubation, the transfection reagent/DNA mixture complex was added to cells in the T175 flask and the cells were incubated at 37° C. in 5% CO2 for 18 h (0/N).
Compounds were serially diluted in DMSO and added to transfected CV-1 cells. The cells were then incubated for 18 hrs. The next day cells were lysed and examined for luminescence.

Compound: COc1ccc([C@H]2CC[C@H](CN(c3cccc(-c4cncc(C(F)(F)F)c4)c3)C(=O)[C@H]3CC[C@H](O)CC3)CC2)cc1C [Compound 1.05, trans-4-Hydroxy-N-((trans-4-(4-methoxy-3-methylphenyl)cyclohexyl)methyl)-N-(3-(5-(trifluoromethyl)pyridine-3-yl)phenyl)cyclohexanecarboxamide]
EC50: ≥ 1000 nM

Compound: COc1ccc(-c2cccc(N(C[C@H]3CC[C@H](c4ccc(OC)c(C)c4)CC3)C(=O)[C@H]3CC[C@H](O)CC3)c2)cc1C [Compound 1.08, trans-4-Hydroxy-N-(4′-methoxy-3′-methyl-[1,1′-biphenyl]-3-yl)-N-((trans-4-(4-methoxy-3-methylphenyl)cyclohexyl)methyl)cyclohexanecarboxamide]
EC50: 500 to 1000 nM

Compound: COc1ccc([C@H]2CC[C@H](CN(c3cccc(-c4cnc(N(C)C)nc4)c3)C(=O)[C@H]3CC[C@H](O)CC3)CC2)cc1C [Compound 1.09, trans-N-(3-(2-(Dimethylamino)pyrimidin-5-yl)phenyl)-4-hydroxy-N-((trans-4-(4-methoxy-3-methylphenyl)cyclohexyl)methyl)cyclohexanecarboxamide]
EC50: ≤ 500 nM

Compound: COc1ccc([C@H]2CC[C@H](CN(c3cccc(-c4ccc(N5CCCC5)nc4)c3)C(=O)[C@H]3CC[C@H](O)CC3)CC2)cc1C [Compound 1.10, trans-4-Hydroxy-N-((trans-4-(4-methoxy-3-methylphenyl)cyclohexyl)methyl)-N-(3-(6-(pyrrolidin-1-yl)pyridine-3-yl)phenyl)cyclohexanecarboxamide]
EC50: ≤ 500 nM

Compound: COc1ccc([C@H]2CC[C@H](CN(c3cc(-c4ccc(N(C)C)nc4)ccn3)C(=O)[C@H]3CC[C@H](O)CC3)CC2)cc1C [Compound 1.11, trans-N-(6-(Dimethylamino)-[3,4′-bipyridin]-2′-yl)-4-hydroxy-N-((trans-4-(4-methoxy-3-methylphenyl)cyclohexyl)methyl)cyclohexanecarboxamide]
EC50: ≤ 500 nM

Compound: COc1cnc(-c2cccc(N(C[C@H]3CC[C@H](c4ccc(OC)c(C)c4)CC3)C(=O)[C@H]3CC[C@H](O)CC3)c2)nc1 [Compound 2.01, trans-4-Hydroxy-N-((trans-4-(4-methoxy-3-methylphenyl)cyclohexyl)methyl)-N-(3-(5-methoxypyrimidin-2-yl)phenyl)cyclohexanecarboxamide]
EC50: ≤ 500 nM

Compound: COc1cnc(-c2cccc(N(C[C@H]3CC[C@H](c4ccc(OC)c(C)c4)CC3)C(=O)[C@H]3CC[C@H](O)CC3)c2)cn1 [Compound 2.02, trans-4-Hydroxy-N-((trans-4-(4-methoxy-3-methylphenyl)cyclohexyl)methyl)-N-(3-(5-methoxypyrazin-2-yl)phenyl)cyclohexanecarboxamide]
EC50: ≤ 500 nM

Compound: COc1ccc([C@H]2CC[C@H](CN(c3cccc(-c4ccc(C(C)C)nc4)c3)C(=O)[C@H]3CC[C@H](O)CC3)CC2)cc1C [Compound 2.03, trans-4-Hydroxy-I-(3-(6-isopropylpyridin-3-yl)phenyl)-N-((trans-4-(4-methoxy-3-methylphenyl)cyclohexyl)methyl)cyclohexanecarboxamide]
EC50: ≤ 500 nM

Compound: COc1ccc([C@H]2CC[C@H](CN(c3cccc(-c4nnc(C)s4)c3)C(=O)[C@H]3CC[C@H](O)CC3)CC2)cc1C [Compound 2.04, trans-4-Hydroxy-N-((trans-4-(4-methoxy-3-methylphenyl)cyclohexyl)methyl)-N-(3-(5-methyl-1,3,4-thiadiazol-2-yl)phenyl)cyclohexanecarboxamide]
EC50: ≥ 1000 nM

Compound: COc1ccc([C@H]2CC[C@H](CN(c3cccc(-c4cn(C)nn4)c3)C(=O)[C@H]3CC[C@H](O)CC3)CC2)cc1C [Compound 2.05, trans-4-Hydroxy-N-((trans-4-(4-methoxy-3-methylphenyl)cyclohexyl)methyl)-N-(3-(1-methyl-1H-1,2,3-triazol-4-yl)phenyl)cyclohexanecarboxamide]
EC50: ≥ 1000 nM

Compound: COc1ccc([C@H]2CC[C@H](CN(c3cccc(-c4cc(C)ns4)c3)C(=O)[C@H]3CC[C@H](O)CC3)CC2)cc1C [Compound 2.06, trans-4-Hydroxy-N-((trans-4-(4-methoxy-3-methylphenyl)cyclohexyl)methyl)-N-(3-(3-methylisothiazol-5-yl)phenyl)cyclohexanecarboxamide]
EC50: ≤ 500 nM

Compound: COc1ccc([C@H]2CC[C@H](CN(c3cccc(-c4ccsn4)c3)C(=O)[C@H]3CC[C@H](O)CC3)CC2)cc1C [Compound 2.07, trans-4-Hydroxy-N-(3-(isothiazol-3-yl)phenyl)-N-((trans-4-(4-methoxy-3-methylphenyl)cyclohexyl)methyl)cyclohexanecarboxamide]
EC50: 500 to 1000 nM

Other lines, results leading:

EC50: ≤ 500 nM
Compound: COc1ccc([C@H]2CC[C@H](CN(c3cccc(-c4ccc(N(C)C)nc4)c3)C(=O)[C@H]3CC[C@H](O)CC3)CC2)cc1C [Compound 1, trans-N-(3-(6-(Dimethylamino)pyridine-3-yl)phenyl)-4-hydroxy-N-((trans-4-(4-methoxy-3-methylphenyl)cyclohexyl)methyl)cyclohexanecarboxamide]

EC50: ≤ 500 nM
Compound: COc1ccc(-c2cccc(N(C[C@H]3CC[C@H](c4ccc(OC)c(C)c4)CC3)C(=O)[C@H]3CC[C@H](O)CC3)c2)cn1 [Compound 1.01, trans-4-Hydroxy-N-((trans-4-(4-methoxy-3-methylphenyl)cyclohexyl)methyl)-N-(3-(6-methoxypyridin-3-yl)phenyl)cyclohexanecarboxamide]

EC50: ≤ 500 nM
Compound: COc1ncc(-c2cccc(N(C[C@H]3CC[C@H](c4ccc(OC)c(C)c4)CC3)C(=O)[C@H]3CC[C@H](O)CC3)c2)cn1 [Compound 1.02, trans-4-Hydroxy-N-((trans-4-(4-methoxy-3-methylphenyl)cyclohexyl)methyl)-N-(3-(2-methoxypyrimidin-5-yl)phenyl)cyclohexanecarboxamide]

EC50: ≤ 500 nM
Compound: COc1ccc(-c2cccc(N(C[C@H]3CC[C@H](c4ccc(OC)c(C)c4)CC3)C(=O)[C@H]3CC[C@H](O)CC3)c2)nc1 [Compound 1.03, trans-4-Hydroxy-N-((trans-4-(4-methoxy-3-methylphenyl)cyclohexyl)methyl)-N-(3-(5-methoxypyridin-2-yl)phenyl)cyclohexanecarboxamide]

EC50: ≤ 500 nM
Compound: COc1ccc([C@H]2CC[C@H](CN(c3cccc(-c4ccc(C(F)(F)F)nc4)c3)C(=O)[C@H]3CC[C@H](O)CC3)CC2)cc1C [Compound 1.04, trans-4-Hydroxy-N-((trans-4-(4-methoxy-3-methylphenyl)cyclohexyl)methyl)-N-(3-(6-(trifluoromethyl)pyridine-3-yl)phenyl)cyclohexanecarboxamide]

EC50: ≤ 500 nM
Compound: COc1ccc([C@H]2CC[C@H](CN(c3cccc(-c4ccc(OC(C)C)nc4)c3)C(=O)[C@H]3CC[C@H](O)CC3)CC2)cc1C [Compound 1.06, trans-4-Hydroxy-N-(3-(6-isopropoxypyridin-3-yl)phenyl)-N-((trans-4-(4-methoxy-3-methylphenyl)cyclohexyl)methyl)cyclohexanecarboxamide]

EC50: ≤ 500 nM
Compound: COc1ccc([C@H]2CC[C@H](CN(c3cccc(-c4ccc(C5CC5)nc4)c3)C(=O)[C@H]3CC[C@H](O)CC3)CC2)cc1C [Compound 1.07, trans-N-(3-(6-Cyclopropylpyridin-3-yl)phenyl)-4-hydroxy-N-((trans-4-(4-methoxy-3-methylphenyl)cyclohexyl)methyl)cyclohexanecarboxamide]
